The values below come from patent US20240416143A1, “PHOTONIC ANTIMICROBIAL WOUND SURFACE DRESSING” (The General Hospital Corporation, priority 2021, published 2024).

Assay [1] has as its system MRSA. Put plainly: Singlet oxygen assay (SOSG) in bacteria. It is filed as cell-based, methicillin-resistant Staphylococcus aureus. Particulars: 10 μg/mL menadione, 200 J/cm^2. The procedure: 1.2.9.2 Singlet oxygen ^1O2 assay: The singlet oxygen was measured by Singlet Oxygen Sensor Green Reagent (SOSG) (Thermofisher). In the presence of singlet oxygen, SOSG emits a green fluorescence similar to that of fluorescein (excitation/emission maxima ˜504/525 nm). The MRSA were grown in BHI broth medium with shaking overnight. Cells were collected by centrifugation at 4,000 rpm for 5 minutes and resuspended in PBS in the stationary growth phase culture of 1×10^8 CFU/mL. The microbial suspension was transferred to a 35×12-mm dish, mixed with 10 μg/mL of menadione, and stained with 10 μM SOSG solution per the manufacturer's instruction. The bacteria were irradiated with the blue light at 50 mW/cm^2 and the samples were collected each 15 minutes to be analyzed by Microplate Spectrofluorometer (SPECTRAmax®, Molecular Devices, USA) at λex=504 nm and λem=525 nm. The control and the menadione/dark groups were generated under the same conditions without irradiation.

Assay [2] addresses NLRP3 inflammasome (Homo sapiens, UniProt Q96P20). The settings on record: cited from earlier work.
The test system of assay [3] is P. aeruginosa biofilms in porcine explants. Put plainly: Photoinactivation of biofilms in ex vivo porcine partial thickness wounds by menadione + aBL. It is filed as cell-based, Pseudomonas aeruginosa. The method, then: (§1) Skin was handled and sanitized with 70% isopropanol solution after hair shaving. The explants and inner wounds were created using a 12 mm and 4 mm biopsy punches respectively. The explants were placed in 12 wells plates using a (8 μm pore) inserts (Corning™ Falcon™). 1 mL of DMEM media was added to each well in the plate before the insert. After 24 hours, the inner wounds in the explants were inoculated with 20 μL of 10^8 CFU/mL of bacterial solution. After that, the explants were incubated at 37° C. and 5% CO2 for 48 hours to ensure the growth of a mature bacterial biofilm. The inner wounds of the explants were replenished daily with fresh BHI media to ensure that the wounds are hydrated.
(§2) 48 hours following the inoculation, mature monobacterial biofilms of MRSA, P. aeruginosa, and E. coli were obtained with 8.00 log10 CFU/g per wound bed on each explant. MRSA biofilms in explant were reduced by 0.81 log10 CFU/g after the treatment of just aBL 250 J/cm^2 (50 mW/cm^2). However, MRSA biofilms in ex-vivo porcine skin were reduced by up to 4.18 log10 CFU/g when treated with aBL combined with menadione (200 μg/mL). For MRSA biofilms, the log reduction of mature monobacterial biofilm increased as the menadione concentration increased (see FIGS. 16A-16B). […]

Assay [4] relates to MRSA. Put plainly: MIC of menadione by broth microdilution, with or without aBL. It is filed as cell-based, methicillin-resistant Staphylococcus aureus. The settings on record: for MIC: Staphylococcus aureus, MRSA, light or radiation study. The method, then: The MICs of menadione in different bacterial strains were determined by a standard broth microdilution assay according to the Clinical and Laboratory Standards Institute. Briefly, menadione was prepared at 100 mg/mL in Tween 80/DMSO (1:1) as a stock solution. The stock solution was diluted to 2048 μg/mL in BHI and then serial dilutions were performed to 1024-0.015 μg/mL in a 96-well plate. Then, a 10 μL stationary growth-phase culture of 10^8 CFU/mL bacteria in BHI broth was added to the 96-well plate containing the serial dilutions of menadione. The medium containing a similar amount of Tween 80/DMSO (1:1) served as a control. The microplates were incubated at 37° C. for 24 hours and the lowest concentration of the compound capable of completely inhibiting bacterial growth was referred to as the MIC.
However, we investigated the effects of aBL (50 mW/cm^2) in potentiating the antibacterial activities of menadione in the three strains of bacteria. […] The highest fluence that we investigated was 125 J/cm^2, when we irradiated the bacteria for 42 minutes.
(Dilution methods test growth across graded concentrations, often in twofold steps.)

Assay [5] addresses NorA efflux pump (Staphylococcus aureus, UniProt P0A0J7). The settings on record: cited from earlier work.
The test system of assay [6] is MRSA. Put plainly: General ROS by DCFH-DA assay in bacteria. Type of assay: cell-based, methicillin-resistant Staphylococcus aureus. The method, then: 1.2.9.1 General ROS measured by […] (DCFH-DA) assay: DCF-DA was purchased from Thermofisher. […] The production of ROS by menadione when combined with blue light was measured in the presence and absence of bacteria. The bacteria (MRSA) was grown in BHI broth medium with shaking overnight. Cells were collected by centrifugation at 4,000 rpm for 5 minutes and resuspended in PBS in the stationary growth phase culture of 1×10^8 CFU/mL. The microbial suspension was transferred to a 35×12-mm dish, mixed with 10 μg/mL of menadione, and stained with 10 μM DCFH-DA solution per the manufacturer's instruction. The solutions (with and without bacteria) were irradiated with the blue light at 50 mW/cm^2 and the samples were collected every 15 minutes to be analyzed by Microplate Spectrofluorometer (SPECTRAmax®, Molecular Devices, USA) at λex=495 nm and λem=525 nm. The control and the menadione/dark groups were generated under the same conditions without irradiation.
We investigated the possibility that minocycline and doxycycline might be acting as a photosensitizer. To do so, the production of ROS by minocycline and doxycycline combined with blue light was measured by the ROS probe DCF in MRSA. From FIG. 28, it can be observed that each of minocycline and doxycycline when combined with blue light at 405 nm produced ROS.

The subject of assay [7] is MRSA biofilms in ex-vivo porcine skin. Put plainly: Photoinactivation of biofilms in ex vivo porcine partial thickness wounds by menadione + aBL. Type of assay: cell-based, methicillin-resistant Staphylococcus aureus. The procedure: as §1, §2

NLRP3 inflammasome, sequence (Q96P20 whole entry): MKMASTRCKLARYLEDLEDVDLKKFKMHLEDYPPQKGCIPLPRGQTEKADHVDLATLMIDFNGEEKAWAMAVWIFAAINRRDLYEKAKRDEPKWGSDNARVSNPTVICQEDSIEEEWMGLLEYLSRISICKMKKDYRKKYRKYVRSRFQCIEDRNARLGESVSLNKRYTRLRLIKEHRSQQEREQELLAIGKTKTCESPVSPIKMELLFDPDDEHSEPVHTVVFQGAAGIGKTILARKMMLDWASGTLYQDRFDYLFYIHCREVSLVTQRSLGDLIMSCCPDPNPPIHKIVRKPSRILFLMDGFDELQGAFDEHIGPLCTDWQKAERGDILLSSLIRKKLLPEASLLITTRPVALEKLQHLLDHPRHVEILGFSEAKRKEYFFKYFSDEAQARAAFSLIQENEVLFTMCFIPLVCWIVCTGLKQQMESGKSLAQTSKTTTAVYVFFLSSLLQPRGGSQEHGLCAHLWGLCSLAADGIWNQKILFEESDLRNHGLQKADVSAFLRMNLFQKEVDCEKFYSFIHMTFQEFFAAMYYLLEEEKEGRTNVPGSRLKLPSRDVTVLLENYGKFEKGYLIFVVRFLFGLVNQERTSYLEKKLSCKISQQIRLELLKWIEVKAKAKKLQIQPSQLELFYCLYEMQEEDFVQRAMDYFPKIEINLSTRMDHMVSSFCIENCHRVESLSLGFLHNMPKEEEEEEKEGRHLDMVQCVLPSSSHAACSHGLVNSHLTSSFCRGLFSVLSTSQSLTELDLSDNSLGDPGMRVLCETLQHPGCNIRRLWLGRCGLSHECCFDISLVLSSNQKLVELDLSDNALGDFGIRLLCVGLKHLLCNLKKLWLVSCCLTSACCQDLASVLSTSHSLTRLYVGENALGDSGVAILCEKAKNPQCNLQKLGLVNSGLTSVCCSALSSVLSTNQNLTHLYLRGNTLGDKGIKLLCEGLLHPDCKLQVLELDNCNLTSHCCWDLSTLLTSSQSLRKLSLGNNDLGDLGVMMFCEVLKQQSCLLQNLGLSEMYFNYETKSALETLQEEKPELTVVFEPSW
NorA efflux pump, sequence (P0A0J7 whole entry): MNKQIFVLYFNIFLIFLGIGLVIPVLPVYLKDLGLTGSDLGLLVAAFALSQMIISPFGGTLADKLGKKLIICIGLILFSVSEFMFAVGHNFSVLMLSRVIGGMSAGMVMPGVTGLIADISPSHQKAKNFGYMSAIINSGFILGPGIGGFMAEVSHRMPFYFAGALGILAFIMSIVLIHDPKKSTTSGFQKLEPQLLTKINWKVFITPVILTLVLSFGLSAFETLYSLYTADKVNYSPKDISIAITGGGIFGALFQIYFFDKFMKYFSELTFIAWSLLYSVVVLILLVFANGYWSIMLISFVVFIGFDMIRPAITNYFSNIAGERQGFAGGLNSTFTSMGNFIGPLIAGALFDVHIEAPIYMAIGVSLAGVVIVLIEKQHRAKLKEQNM

Turning to `CC1=CC(=O)c2ccccc2C1=O` [menadione, 2-methyl-1,4-naphthoquinone], in assay [1], the “singlet oxygen (SOSG), menadione+aBL vs aBL alone” value was found to be 1.5 times. Moreover, the “inhibition of NLRP3 inflammasome” value in assay [2] was “selective, potent inhibitor”. Further, in assay [3] (50 μg/mL menadione + blue light), the “biofilm reduction by menadione and blue light” value turned out to be 5.27 log10 CFU/mL. For the same molecule, the “biofilm reduction by menadione in the absence of aBL” value in assay [3] (no aBL) is “no effect of biofilm reduction”; in assay [7] (ex vivo porcine explants, no aBL), “no effect of biofilm reduction”. The MIC was found to be 8 µg/mL in assay [4] (5 min, aBL 15.62 J/cm^2 (5 mins.), 50 mW/cm^2); 4 µg/mL in assay [4] (0.175 h, aBL 31.25 J/cm^2 (10.5 mins.), 50 mW/cm^2); 1 µg/mL in assay [4] (0.35 h, aBL 62.5 J/cm^2 (21 mins.), 50 mW/cm^2); 0.0625 µg/mL in assay [4] (0.7 h, aBL 125 J/cm^2 (42 mins.), 50 mW/cm^2); 8 µg/mL in assay [4] (0 J/cm^2 (Dark)). Also, the “lowering of MIC by aBL” value in assay [4] (aBL 125 J/cm^2 vs dark) worked out at 78%. Moreover, in assay [5], the “inhibition of efflux pump gene expression and efflux pump function” value is given as “significant inhibition”. The “production of ROS measured by DCF, menadione+aBL vs aBL alone” value in assay [6] (MRSA, 10 μg/mL menadione, 180 J/cm^2) is recorded as “two times higher”. Also, in assay [6] (absolute dark), the “ROS generation in bacteria by menadione in the dark” value is “does not appear to generate significant ROS”. Also, the “increase of total ROS, menadione combined with aBL” value in assay [6] (bacteria, menadione + aBL) came out at 2.5 fold. In assay [7] (ex vivo porcine wound, menadione 200 μg/mL + aBL 250 J/cm^2 (50 mW/cm^2)), the “biofilm reduction by aBL combined with menadione” value is reported as “up to 4.18 log10 CFU/g”.

A word on the MIC: it is the least concentration at which growth counts as inhibited.
